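Where inhibition never reached the appropriate level, the endpoint shown equals the highest concentration tested. Otherwise, values were interpolated linearly from a five-concentration, 48-hour dose response in 96-well plates. The concentration for 50% growth inhibition is given as GI50.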 Calls of active or inactive are those of the source. Rule as the data show it: active = GI50 up to about 1.1 µM and inactive = higher.
Columns and labels:
Assay in all cases: growth of human tumour cells (NCI), 48 h
786-0 = test system: 786-0
CAKI-1 = test system: CAKI-1
DU-145 = test system: DU-145
HCT-116 = test system: HCT-116
HCT-15 = test system: HCT-15
HOP-92 = test system: HOP-92
MDA-MB-231 = test system: MDA-MB-231
MDA-MB-435 = test system: MDA-MB-435
OVCAR-5 = test system: OVCAR-5
RXF 393 = test system: RXF 393
SF-268 = test system: SF-268
SF-295 = test system: SF-295
SK-OV-3 = test system: SK-OV-3
SR = test system: SR
TK-10 = test system: TK-10
U-251 = test system: U-251
IGROV-1 = test system: IGROV-1
OVCAR-8 = test system: OVCAR-8
LOX IMVI = test system: LOX IMVI
RPMI-8226 = test system: RPMI-8226

Row | SMILES | GI50 (786-0) | GI50 (CAKI-1) | GI50 (DU-145) | GI50 (HCT-116) | GI50 (HCT-15) | GI50 (HOP-92) | GI50 (MDA-MB-231) | GI50 (MDA-MB-435) | GI50 (OVCAR-5) | GI50 (RXF 393) | GI50 (SF-268) | GI50 (SF-295) | GI50 (SK-OV-3) | GI50 (SR) | GI50 (TK-10) | GI50 (U-251) | GI50 (IGROV-1) | GI50 (OVCAR-8) | GI50 (LOX IMVI) | GI50 (RPMI-8226)
1 | Cc1c(/C=N\NC(=S)NCCNC(=S)N/N=C\c2c(C)n(C)n(-c3ccccc3)c2=O)c(=O)n(-c2ccccc2)n1C | > 100 µM (inactive) | > 100 µM (inactive) | > 100 µM (inactive) | > 100 µM (inactive) | > 100 µM | > 100 µM (inactive) | 54.8 µM (inactive) | 92.5 µM (inactive) | > 100 µM (inactive) | > 100 µM (inactive) | > 100 µM (inactive) | > 100 µM (inactive) | > 100 µM (inactive) | > 100 µM (inactive) | > 100 µM (inactive) | > 100 µM (inactive) |  |  |  | 
2 | CN(C)c1ccc(/C=C/c2ccc3ccccc3[n+]2C)cc1 | 6.76 µM (inactive) |  | 1.67 µM (inactive) | 1.81 µM (inactive) | 6.65 µM | 1.99 µM (inactive) | 3.28 µM (inactive) | 4.21 µM (inactive) | 7.01 µM (inactive) | 2.81 µM (inactive) | 4.45 µM (inactive) | 2.95 µM (inactive) | 5.73 µM (inactive) | 1.77 µM (inactive) | 5.16 µM (inactive) | 2.38 µM (inactive) | 3.54 µM (inactive) | 1.39 µM (inactive) |  | 
3 | CN(C)CCNC1=Nc2ccccc2C(=S)N2CSCC12 (centres undefined) | > 100 µM (inactive) | > 100 µM (inactive) | 74.8 µM (inactive) | > 100 µM (inactive) | > 100 µM |  | > 100 µM (inactive) | > 100 µM (inactive) | > 100 µM (inactive) | 59.3 µM (inactive) | > 100 µM (inactive) | > 100 µM (inactive) | > 100 µM (inactive) | > 100 µM (inactive) | > 100 µM (inactive) | > 100 µM (inactive) | > 100 µM (inactive) | > 100 µM (inactive) | > 100 µM (inactive) | > 100 µM (inactive)
4 | CC(C)(C)NC(=O)CCC1C(C(=O)NC(C)(C)C)C2(Cl)C(Cl)=C(Cl)C1(Cl)C2(Cl)Cl (centres undefined) | > 100 µM (inactive) |  | > 100 µM (inactive) | > 100 µM (inactive) | > 100 µM |  | > 100 µM (inactive) | > 100 µM (inactive) | > 100 µM (inactive) | > 100 µM (inactive) | > 100 µM (inactive) | > 100 µM (inactive) | > 100 µM (inactive) | > 100 µM (inactive) | > 100 µM (inactive) | > 100 µM (inactive) | > 100 µM (inactive) | > 100 µM (inactive) | > 100 µM (inactive) | > 100 µM (inactive)
5 | Clc1ccc(-c2nc(-c3ccc(Cl)cc3)[s+]s2)cc1 | 38 µM (inactive) | > 100 µM (inactive) | > 100 µM (inactive) | 51.4 µM (inactive) | 33.3 µM |  | 46.9 µM (inactive) | 74.1 µM (inactive) | > 100 µM (inactive) | 84.7 µM (inactive) | 37.2 µM (inactive) | > 100 µM (inactive) | 41.1 µM (inactive) | 28.4 µM (inactive) | 24 µM (inactive) | 30.4 µM (inactive) | 19.7 µM (inactive) | 39.8 µM (inactive) | 33.1 µM (inactive) | 32.6 µM (inactive)
6 | COC(=O)c1c2c(cc3c1CCC3)CCC2 | 80.7 µM (inactive) | 72.4 µM (inactive) | 65.8 µM (inactive) | 39.6 µM (inactive) | 57.8 µM |  | 37.7 µM (inactive) | 70.8 µM (inactive) | > 100 µM (inactive) |  | 95.7 µM (inactive) | 29.9 µM (inactive) | 91.4 µM (inactive) | 18.2 µM (inactive) | 57.4 µM (inactive) | 51.9 µM (inactive) | > 100 µM (inactive) | > 100 µM (inactive) | 39.4 µM (inactive) | 20.2 µM (inactive)
7 | COc1cc2c(cc1OCCCCCCCCN1C(=O)c3cccc4cccc(c34)C1=O)N=C[C@@H]1CCCN1C2=O | 23.6 µM (inactive) | 13.3 µM (inactive) | 50.2 µM (inactive) | 19.1 µM (inactive) | 12.8 µM |  | 8.63 µM (inactive) | 14.3 µM (inactive) | 20.4 µM (inactive) | 12.4 µM (inactive) | 15 µM (inactive) | 15.6 µM (inactive) | 1.79 µM (inactive) | 4.07 µM (inactive) | 29.7 µM (inactive) | 6.62 µM (inactive) | 3.11 µM (inactive) | 14.9 µM (inactive) | 6.89 µM (inactive) | 2.96 µM (inactive)
8 | C/C(=N\N=C(/S)N(C)C)c1cccnn1 | 0.486 µM (active) | 0.853 µM (active) | 0.889 µM (active) | 0.369 µM (active) | 0.468 µM |  | 0.745 µM (active) | 1.42 µM (inactive) | 1.06 µM (active) | 0.488 µM (active) | 0.65 µM (active) | 0.879 µM (active) | 1.26 µM (inactive) | 0.293 µM (active) | 4.05 µM (inactive) | 0.977 µM (active) | 0.689 µM (active) | 0.526 µM (active) | 0.495 µM (active) | 0.466 µM (active)
9 | N=C(N)SCC(=O)O | > 100 µM (inactive) | > 100 µM (inactive) | > 100 µM (inactive) | > 100 µM (inactive) | > 100 µM | > 100 µM (inactive) | > 100 µM (inactive) | > 100 µM (inactive) | > 100 µM (inactive) | > 100 µM (inactive) | > 100 µM (inactive) | > 100 µM (inactive) | > 100 µM (inactive) |  | > 100 µM (inactive) | > 100 µM (inactive) | > 100 µM (inactive) | > 100 µM (inactive) | > 100 µM (inactive) | > 100 µM (inactive)
10 | Cc1ccc(C(=O)Nc2ccc(S(=O)(=O)O)c3cc(S(=O)(=O)O)cc(S(=O)(=O)O)c23)cc1NC(=S)Nc1cc(C(=O)Nc2ccc(S(=O)(=O)O)c3cc(S(=O)(=O)O)cc(S(=O)(=O)O)c23)ccc1C | > 75 µM (inactive) | > 75 µM (inactive) | > 75 µM (inactive) | > 75 µM (inactive) | > 75 µM |  | > 75 µM (inactive) | > 75 µM (inactive) | > 75 µM (inactive) |  | > 75 µM (inactive) |  |  | > 75 µM (inactive) | > 75 µM (inactive) | > 75 µM (inactive) | > 75 µM (inactive) | > 75 µM (inactive) | > 75 µM (inactive) | > 75 µM (inactive)
11 | COC(=O)C(COC(C)=O)NC(=O)/C=C/c1ccc(O)c(OC(C)=O)c1 (centres undefined) | 55.8 µM (inactive) | 66.2 µM (inactive) | 58.6 µM (inactive) | 39.1 µM (inactive) | 8.97 µM | 83.4 µM (inactive) | 30.1 µM (inactive) | > 100 µM (inactive) | > 100 µM (inactive) |  | > 100 µM (inactive) | > 100 µM (inactive) | > 100 µM (inactive) | 5.81 µM (inactive) | 77.4 µM (inactive) | 37 µM (inactive) | 31.6 µM (inactive) | 58.1 µM (inactive) | 44.6 µM (inactive) | 29.6 µM (inactive)
12 | Cc1c(NC(=S)NN)c(=O)n(-c2ccccc2)n1C | > 100 µM (inactive) | > 100 µM (inactive) | > 100 µM (inactive) | > 100 µM (inactive) | > 100 µM |  | 0.0796 µM (active) | > 100 µM (inactive) | > 100 µM (inactive) | > 100 µM (inactive) | > 100 µM (inactive) | > 100 µM (inactive) | > 100 µM (inactive) | > 100 µM (inactive) | > 100 µM (inactive) | > 100 µM (inactive) | > 100 µM (inactive) | > 100 µM (inactive) | > 100 µM (inactive) | > 100 µM (inactive)
13 | C=CCC1(C(=O)OC)CCC/C(=N\O)C1 (centres undefined) | > 10 µM (inactive) | > 10 µM (inactive) | > 10 µM (inactive) | > 10 µM (inactive) | > 10 µM | > 10 µM (inactive) | > 10 µM (inactive) | > 10 µM (inactive) |  |  | > 10 µM (inactive) | > 10 µM (inactive) | > 10 µM (inactive) | > 10 µM (inactive) | > 10 µM (inactive) | > 10 µM (inactive) | > 10 µM (inactive) | > 10 µM (inactive) | > 10 µM (inactive) | > 10 µM (inactive)
14 | CC1=C[P+](c2ccccc2)(c2ccccc2)c2ccccc2O1 | 25.2 µM (inactive) | 23.5 µM (inactive) | 19.2 µM (inactive) | 3.71 µM (inactive) | > 100 µM | 3.73 µM (inactive) | 3.96 µM (inactive) | 2.47 µM (inactive) | 17.4 µM (inactive) | > 100 µM (inactive) | 16.6 µM (inactive) | 13 µM (inactive) | 25 µM (inactive) | 1.56 µM (inactive) | 14 µM (inactive) | 3.65 µM (inactive) | 5.28 µM (inactive) | 5.14 µM (inactive) | 4.45 µM (inactive) | 
15 | O=C(NNc1ccc([N+](=O)[O-])cc1[N+](=O)[O-])/C(O)=C\C(=O)c1ccccc1 | 13.2 µM (inactive) | 21.1 µM (inactive) | 16.9 µM (inactive) | 14.4 µM (inactive) | 16.5 µM |  | 23.4 µM (inactive) | 30.5 µM (inactive) | 19.7 µM (inactive) | 16.3 µM (inactive) | 17.7 µM (inactive) | 15.3 µM (inactive) | 18.6 µM (inactive) | 19.9 µM (inactive) | 22.4 µM (inactive) | 14.9 µM (inactive) | 17.9 µM (inactive) | 18.7 µM (inactive) | 24.5 µM (inactive) | 15.3 µM (inactive)

Source: ChEMBL document CHEMBL1201862, “PubChem BioAssay data set” (2004)
